Laboratory results taken from patent publication US10588317B2, “Isoxazoline-substituted benzamides and analogues as insecticides” (priority 2015, dated 2020).

Key:
Format in all cases: in vivo
[1] = test system: Euschistus heros; assay: Euschistus heros (neotropical brown stink bug), sprayed soybean leaves; settings: 120 h, application rate 200 ppm, N2 nymphs, 5 days after infestation, read-out: effect in at least one of the two categories (mortality or growth inhibition)
Summary of the method: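 Scored 5 days post-infestation versus untreated controls, for both mortality and growth inhibition: N2 nymphs placed on agar-mounted soybean leaves previously sprayed at 200 ppm with aqueous test solutions from DMSO stocks and left to dry.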

[2] = test system: Thrips tabaci; assay: Thrips tabaci (onion thrips): feeding/contact activity; settings: 144 h, application rate 200 ppm, Thrips population of mixed ages, 6 days after infestation, read-out: mortality
Experimental: (§1) Sunflower leaf discs were placed on agar in 24-well microtiter plates and sprayed with aqueous test solutions prepared from 10'000 ppm DMSO stock solutions. After drying the leaf discs were infested with a Thrips population of mixed ages. The samples were assessed for mortality 6 days after infestation.

[3] = test system: Myzus persicae; assay: Myzus persicae (green peach aphid): feeding/contact activity; settings: 144 h, application rate 200 ppm, aphid population of mixed ages, 6 days after infestation, read-out: mortality
Experimental: Sunflower leaf discs were placed onto agar in a 24-well microtiter plate and sprayed with aqueous test solutions prepared from 10'000 ppm DMSO stock solutions. After drying, the leaf discs were infested with an aphid population of mixed ages. The samples were assessed for mortality 6 days after infestation.

[4] = test system: Diabrotica balteata; assay: Diabrotica balteata (corn root worm), sprayed maize sprouts; settings: 96 h, application rate 200 ppm, L2 larvae, 4 days after infestation, read-out: effect in at least one of the two categories (mortality or growth inhibition)
Summary of the method: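 Read-out at 4 days post-infestation: mortality and growth inhibition relative to untreated samples. Test solutions (200 ppm, from DMSO stocks) were sprayed onto agar-held maize sprouts, which after drying received 6–10 L2 larvae per well.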

[5] = test system: Spodoptera littoralis; assay: Spodoptera littoralis (Egyptian cotton leaf worm), sprayed cotton leaf discs; settings: foliar, 72 h, application rate 200 ppm, L1 larvae, 3 days after infestation, read-out: control (mortality, anti-feeding effect, growth inhibition)
Summary of the method: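 Five first-instar larvae placed on dried cotton leaf discs (on agar) previously sprayed with aqueous dilutions of 10'000 ppm DMSO stocks. Scored at 3 days against untreated discs for mortality, feeding inhibition and growth inhibition; any category above untreated counts as control.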

[6] = test system: Plutella xylostella; assay: Plutella xylostella (diamond back moth), artificial diet; settings: 120 h, application rate 200 ppm, L2 larvae, 5 days after infestation, read-out: effect in at least one of the two categories (mortality or growth inhibition)
Summary of the method: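 L2 larvae (10-15 per well) fed on compound-treated, dried artificial diet; test solutions diluted in water from 10'000 ppm DMSO stocks. Readout 5 days post-infestation as mortality or growth inhibition versus untreated diet, with at least 80% effect at 200 ppm as threshold.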

[7] = test system: Tetranychus urticae; assay: Tetranychus urticae (two-spotted spider mite): feeding/contact activity; settings: 192 h, application rate 200 ppm, mixed population (mobile stages), 8 days after infestation, read-out: mortality
Experimental: as §1, with “Bean” for “Sunflower”, “discs” for “discs were placed”, “were” for “and”, “mite” for “Thrips”, “on mixed population (mobile stages) 8” for “6”

COCCS(=O)(=O)N1CC(NC(=O)c2ccc(C3=NO[C@@](c4cc(Cl)c(F)c(Cl)c4)(C(F)(F)F)C3)cc2C)CO1 (some centres unmarked) [Compound A18]
≥ 80%: percent effect (mortality or growth inhibition) at 200 ppm [1] | mortality at 200 ppm [2] | mortality at 200 ppm [3] | percent effect (mortality or growth inhibition) at 200 ppm [4] | mortality at 200 ppm [5] | percent effect (mortality or growth inhibition) at 200 ppm [6] | mortality at 200 ppm [7]

CCS(=O)(=O)N1CC(NC(=O)c2ccc(C3=NO[C@@](c4cc(Cl)c(Cl)c(Cl)c4)(C(F)(F)F)C3)cc2Br)CO1 (stereo partly drawn) [Compound A43, 2-bromo-N-(2-ethylsulfonylisoxazolidin-4-yl)-4-[(5S)-5-(3,4,5-trichlorophenyl)-5-(trifluoromethyl)-4H-isoxazol-3-yl]benzamide]
≥ 80%: percent effect (mortality or growth inhibition) at 200 ppm [1] | mortality at 200 ppm [2] | mortality at 200 ppm [3] | percent effect (mortality or growth inhibition) at 200 ppm [4] | mortality at 200 ppm [5] | percent effect (mortality or growth inhibition) at 200 ppm [6] | mortality at 200 ppm [7]

Cc1cc(C2=NOC(c3cc(Cl)c(C#N)c(Cl)c3)(C(F)(F)F)C2)ccc1C(=O)NC1CON(S(C)(=O)=O)C1 (centres unmarked) [Compound A50]
≥ 80%: percent effect (mortality or growth inhibition) at 200 ppm [1] | mortality at 200 ppm [2] | mortality at 200 ppm [3] | percent effect (mortality or growth inhibition) at 200 ppm [4] | mortality at 200 ppm [5] | percent effect (mortality or growth inhibition) at 200 ppm [6] | mortality at 200 ppm [7]

Cc1cc(C2=NO[C@@](c3cc(Cl)c(F)c(Cl)c3)(C(F)(F)F)C2)ccc1C(=O)NC1CON(S(N)(=O)=O)C1 (some centres unmarked) [Compound A71]
≥ 80%: percent effect (mortality or growth inhibition) at 200 ppm [1] | mortality at 200 ppm [2] | mortality at 200 ppm [3] | percent effect (mortality or growth inhibition) at 200 ppm [4] | mortality at 200 ppm [5] | percent effect (mortality or growth inhibition) at 200 ppm [6] | mortality at 200 ppm [7]

Cc1cc(C2=NO[C@@](c3cc(Cl)c(F)c(Cl)c3)(C(F)(F)F)C2)ccc1C(=O)NC1CON(S(=O)(=O)N(C)C(=O)N(C)C)C1 (some centres unmarked) [Compound A74]
≥ 80%: percent effect (mortality or growth inhibition) at 200 ppm [1] | mortality at 200 ppm [2] | mortality at 200 ppm [3] | percent effect (mortality or growth inhibition) at 200 ppm [4] | mortality at 200 ppm [5] | percent effect (mortality or growth inhibition) at 200 ppm [6] | mortality at 200 ppm [7]

COC(=O)N(C)S(=O)(=O)N1CC(NC(=O)c2ccc(C3=NO[C@@](c4cc(Cl)c(F)c(Cl)c4)(C(F)(F)F)C3)cc2C)CO1 (stereo partly drawn) [Compound A77, methyl N-[4-[[4-[(5S)-5-(3,5-dichloro-4-fluoro-phenyl)-5-(trifluoromethyl)-4H-isoxazol-3-yl]-2-methyl-benzoyl]amino]isoxazolidin-2-yl]sulfonyl-N-methyl-carbamate]
≥ 80%: percent effect (mortality or growth inhibition) at 200 ppm [1] | mortality at 200 ppm [2] | mortality at 200 ppm [3] | percent effect (mortality or growth inhibition) at 200 ppm [4] | mortality at 200 ppm [5] | percent effect (mortality or growth inhibition) at 200 ppm [6] | mortality at 200 ppm [7]

Cc1cc(C2=NO[C@@](c3cc(Cl)c(F)c(Cl)c3)(C(F)(F)F)C2)ccc1C(=O)NC1CON(S(=O)(=O)N(C)S(=O)(=O)N(C)C)C1 (stereo partly drawn) [Compound A79, 4-[(5S)-5-(3,5-dichloro-4-fluoro-phenyl)-5-(trifluoromethyl)-4H-isoxazol-3-yl]-N-[2-[dimethylsulfamoyl(methyl)sulfamoyl]isoxazolidin-4-yl]-2-methyl-benzamide]
≥ 80%: percent effect (mortality or growth inhibition) at 200 ppm [1] | mortality at 200 ppm [2] | mortality at 200 ppm [3] | percent effect (mortality or growth inhibition) at 200 ppm [4] | mortality at 200 ppm [5] | percent effect (mortality or growth inhibition) at 200 ppm [6] | mortality at 200 ppm [7]

Cc1cc(C2=NO[C@@](c3cc(Cl)c(F)c(Cl)c3)(C(F)(F)F)C2)ccc1C(=O)NC1CON(S(=O)(=O)N(C)C(=O)c2ccccc2)C1 (stereo partly drawn) [Compound A80, N-[2-[benzoyl(methyl)sulfamoyl]isoxazolidin-4-yl]-4-[(5S)-5-(3,5-dichloro-4-fluoro-phenyl)-5-(trifluoromethyl)-4H-isoxazol-3-yl]-2-methyl-benzamide]
≥ 80%: percent effect (mortality or growth inhibition) at 200 ppm [1] | mortality at 200 ppm [2] | mortality at 200 ppm [3] | percent effect (mortality or growth inhibition) at 200 ppm [4] | mortality at 200 ppm [5] | percent effect (mortality or growth inhibition) at 200 ppm [6] | mortality at 200 ppm [7]

Cc1cc(C2=NO[C@@](c3cc(Cl)c(Cl)c(Cl)c3)(C(F)(F)F)C2)ccc1C(=O)NC1CON(S(=O)(=O)N(C)CC2CO2)C1 (stereo partly drawn) [Compound A83, 2-methyl-N-[2-[methyl(oxiran-2-ylmethyl)sulfamoyl]isoxazolidin-4-yl]-4-[(5S)-5-(3,4,5-trichlorophenyl)-5-(trifluoromethyl)-4H-isoxazol-3-yl]benzamide]
≥ 80%: percent effect (mortality or growth inhibition) at 200 ppm [1] | mortality at 200 ppm [2] | mortality at 200 ppm [3] | percent effect (mortality or growth inhibition) at 200 ppm [4] | mortality at 200 ppm [5] | percent effect (mortality or growth inhibition) at 200 ppm [6] | mortality at 200 ppm [7]

CCCN(C)S(=O)(=O)N1CC(NC(=O)c2ccc(C3=NO[C@@](c4cc(Cl)c(Cl)c(Cl)c4)(C(F)(F)F)C3)cc2C)CO1 (stereo partly drawn) [Compound A84, 2-methyl-N-[2-[methyl(propyl)sulfamoyl]isoxazolidin-4-yl]-4-[(5S)-5-(3,4,5-trichlorophenyl)-5-(trifluoromethyl)-4H-isoxazol-3-yl]benzamide]
≥ 80%: percent effect (mortality or growth inhibition) at 200 ppm [1] | mortality at 200 ppm [2] | mortality at 200 ppm [3] | percent effect (mortality or growth inhibition) at 200 ppm [4] | mortality at 200 ppm [5] | percent effect (mortality or growth inhibition) at 200 ppm [6] | mortality at 200 ppm [7]

CCCCN(C)S(=O)(=O)N1CC(NC(=O)c2ccc(C3=NO[C@@](c4cc(Cl)c(Cl)c(Cl)c4)(C(F)(F)F)C3)cc2C)CO1 (stereo partly drawn) [Compound A85, N-[2-[butyl(methyl)sulfamoyl]isoxazolidin-4-yl]-2-methyl-4-[(5S)-5-(3,4,5-trichlorophenyl)-5-(trifluoromethyl)-4H-isoxazol-3-yl]benzamide]
≥ 80%: percent effect (mortality or growth inhibition) at 200 ppm [1] | mortality at 200 ppm [2] | mortality at 200 ppm [3] | percent effect (mortality or growth inhibition) at 200 ppm [4] | mortality at 200 ppm [5] | percent effect (mortality or growth inhibition) at 200 ppm [6] | mortality at 200 ppm [7]

Cc1cc(C2=NO[C@@](c3cc(Cl)c(Cl)c(Cl)c3)(C(F)(F)F)C2)ccc1C(=O)NC1CON(S(=O)(=O)N(C)Cc2ccccc2)C1 (stereo partly drawn) [Compound A86, N-[2-[benzyl(methyl)sulfamoyl]isoxazolidin-4-yl]-2-methyl-4-[(5S)-5-(3,4,5-trichlorophenyl)-5-(trifluoromethyl)-4H-isoxazol-3-yl]benzamide]
≥ 80%: percent effect (mortality or growth inhibition) at 200 ppm [1] | mortality at 200 ppm [2] | mortality at 200 ppm [3] | percent effect (mortality or growth inhibition) at 200 ppm [4] | mortality at 200 ppm [5] | percent effect (mortality or growth inhibition) at 200 ppm [6] | mortality at 200 ppm [7]

CCN(C(=O)OC(C)(C)C)S(=O)(=O)N1CC(NC(=O)c2ccc(C3=NO[C@@](c4cc(Cl)c(F)c(Cl)c4)(C(F)(F)F)C3)cc2C)CO1 (stereo partly drawn) [Compound A93, tert-butyl N-[4-[[4-[(5S)-5-(3,5-dichloro-4-fluoro-phenyl)-5-(trifluoromethyl)-4H-isoxazol-3-yl]-2-methyl-benzoyl]amino]isoxazolidin-2-yl]sulfonyl-N-ethyl-carbamate]
≥ 80%: percent effect (mortality or growth inhibition) at 200 ppm [1] | mortality at 200 ppm [2] | mortality at 200 ppm [3] | percent effect (mortality or growth inhibition) at 200 ppm [4] | mortality at 200 ppm [5] | percent effect (mortality or growth inhibition) at 200 ppm [6] | mortality at 200 ppm [7]

COCN(C)S(=O)(=O)N1CC(NC(=O)c2ccc(C3=NO[C@@](c4cc(Cl)c(Cl)c(Cl)c4)(C(F)(F)F)C3)cc2C)CO1 (some centres unmarked) [Compound A96]
≥ 80%: percent effect (mortality or growth inhibition) at 200 ppm [1] | mortality at 200 ppm [2] | mortality at 200 ppm [3] | percent effect (mortality or growth inhibition) at 200 ppm [4] | mortality at 200 ppm [5] | percent effect (mortality or growth inhibition) at 200 ppm [6] | mortality at 200 ppm [7]
